Results reported in paper PMC8704606, “The Artemiside-Artemisox-Artemisone-M1 Tetrad: Efficacies against Blood Stage P. falciparum Parasites, DMPK Properties, and the Case for Artemiside” (Pharmaceutics, 2021).
Where two headings read alike, the source gives them in different places.

Legend:
[1] = Cytotoxicity (LDH assay) against HepG2 cells; format: cell-based; details: human, HepG2 cells (hepatocellular carcinoma)
Description: Cytotoxicity against mammalian hepatocellular carcinoma cells (HepG2 cells) was determined using the lactate dehydrogenase assay (LDH, Biovision Inc., Milpitas, CA, USA). […] Compound working solutions were prepared from 10 mM stock solutions (100% DMSO) in complete DMEM to a final DMSO (Sigma-Aldrich) conc. of <0.1% (vol/vol). […] Data analysis was performed using GraphPad Prism (version 6) software.

[2] = Pharmacokinetics and metabolism after iv and po administration; format: in vivo; details: for half-life: mean ± SD, read-out: t½ (converted); for MRT last: read-out: MRT0-last; for AUC(0-t): up to 7 h
Description: The plasma concentration-time profiles of the parent compounds and metabolites after administration iv and po to male C57/BL6 mice are presented in Figure 2, Figure 3 and Figure 4. Artemiside was quantifiable up to 24 h in all mice dosed iv and up to 7 h po (lower limit of quantitation LLOQ = 1.6 ng/mL or 0.004 μM) (Figure 2). […] For both artemiside and artemisox, the metabolite artemisone was quantifiable up to 3 h in both the po and iv groups (Figure 2 and Figure 3). Thereby it is confirmed that artemiside is rapidly converted via artemisox into artemisone. Artemisone itself was quantifiable up to three hours post dose (Figure 4). The mean circulating concentrations for the compounds and their metabolites are presented in Table S3a–f in the Supplementary Material 1. The metabolite M1 was also detected upon administration of artemiside, artemisox, and artemisone, but it was not quantified here; chromatograms indicating the presence of M1 are illustrated in Figure S3a–c in the Supplementary Material 1. In addition, the plasma concentration-time curves for artemiside and its metabolites artemisone and M1 following iv and po dosing in the same murine model are presented and discussed in detail elsewhere (cf. Figure 4 in reference).
All work was conducted with prior approval of the animal ethics committee of the University of Cape Town in accordance with the South African National Standards for the Care and Use of Animals for Scientific Purposes and guidelines from the South African Department of Health. The requirements and methods for the pharmacokinetics in vivo involving po and iv drug administration, sample extraction, analyses of samples by LC-MS/MS, and data analyses are described elsewhere. For the animal experiments and formulations, the compounds were dissolved in a 10:60:30 mixture of N,N-dimethylacetamide-polypropylene glycol-polyethylene glycol for intravenous dosing (iv) at 5 mg/kg. For the oral dose (po), compounds were individually dosed as a suspension in 0.5% (w/v) hydroxypropylmethylcellulose in water with 0.2% Tween80 at 50 mg/kg to male C57/BL6 mice (n = 3 for each group). For PK sampling, blood samples were collected at predetermined times (0.08, 0.25, 0.5, 1, 3, 5, 7, and 24 h) for both po and iv dosing via tail bleeding into heparinized tubes, centrifuged, and the plasma samples were stored at −80 °C until extraction. For preparation of samples, the frozen plasma samples were thawed and 15 μL was extracted by liquid–liquid extraction using a universal buffer (pH8) containing 10 ng/mL of the internal standard and ethyl acetate, and the extract was vortexed and centrifuged. Calibration standards and quality controls were extracted following the same procedure. Supernatants were dried down, reconstituted, and injected onto the column for LC-MS/MS analysis using an AB SCIEX 5500 QTRAP instrument coupled to an Agilent 1260 HPLC detection system as previously described.

[3] = male, C57/BL6, mouse, plasma, iv 5 mg/kg, parent drug
[4] = male, C57/BL6, mouse, plasma, po 50 mg/kg, parent drug

Question: For `C[C@H]1[C@H](N2CC[S+]([O-])CC2)O[C@@H]2O[C@@]3(C)CC[C@H]4[C@H](C)CC[C@@H]1[C@@]24OO3` [Artemisox 6, Artemisox], which IC50 at 24 h [1] is on record?
Answer: The IC50 at 24 h was greater than 50 µM.

Question: And the “Mean iv circulating concentration” value ([2]; 7 h after iv 5 mg/kg artemisox 6)?
Answer: Its value is “blq”.

Question: What about the “Mean iv circulating concentration” value ([2]; 24 h after iv 5 mg/kg artemisox 6) of the same compound?
Answer: The value was “blq”.

Question: And the “Mean po circulating concentration” value ([2]; 24 h after po 50 mg/kg artemiside 5)?
Answer: Its value is “blq”.

Question: And the “Mean po circulating concentration” value ([2]; 24 h after po 50 mg/kg artemisox 6)?
Answer: The value was “blq”.

Question: What about the “quantifiable/detectable in plasma up to” value ([2]; iv group, parent drug, LLOQ 1.6 ng/mL or 0.004 μM for artemiside) of the same compound?
Answer: The value was “up to 5 h”.

Question: And the concentration at 0.08 h ([2]; male, C57/BL6, mouse, plasma, iv, 5 mg/kg, 0.08 h after iv 5 mg/kg artemiside 5, read-out: Mean iv circulating concentration)?
Answer: The concentration at 0.08 h was 1930 nM.

Question: And the concentration at 0.08 h ([2]; male, C57/BL6, mouse, plasma, iv, 5 mg/kg, 0.08 h after iv 5 mg/kg artemisox 6, read-out: Mean iv circulating concentration)?
Answer: The concentration at 0.08 h was 1900 nM.

Question: And the concentration at 0.25 h ([2]; male, C57/BL6, mouse, plasma, iv, 5 mg/kg, 0.25 h after iv 5 mg/kg artemiside 5, read-out: Mean iv circulating concentration)?
Answer: The concentration at 0.25 h was 1820 nM.

Question: And the concentration at 0.25 h ([2]; male, C57/BL6, mouse, plasma, iv, 5 mg/kg, 0.25 h after iv 5 mg/kg artemisox 6, read-out: Mean iv circulating concentration)?
Answer: Its concentration at 0.25 h is 2420 nM.

Question: What about the concentration at 0.5 h ([2]; male, C57/BL6, mouse, plasma, iv, 5 mg/kg, 0.5 h after iv 5 mg/kg artemiside 5, read-out: Mean iv circulating concentration) of the same compound?
Answer: The concentration at 0.5 h was 1380 nM.

Question: And the concentration at 0.5 h ([2]; male, C57/BL6, mouse, plasma, iv, 5 mg/kg, 0.5 h after iv 5 mg/kg artemisox 6, read-out: Mean iv circulating concentration)?
Answer: The concentration at 0.5 h was 1920 nM.

Question: And the concentration at 1 h ([2]; male, C57/BL6, mouse, plasma, iv, 5 mg/kg, 1 h after iv 5 mg/kg artemiside 5, read-out: Mean iv circulating concentration)?
Answer: Its concentration at 1 h is 674 nM.

Question: What about the concentration at 1 h ([2]; male, C57/BL6, mouse, plasma, iv, 5 mg/kg, 1 h after iv 5 mg/kg artemisox 6, read-out: Mean iv circulating concentration) of the same compound?
Answer: Its concentration at 1 h is 663 nM.

Question: And the concentration at 3 h ([2]; male, C57/BL6, mouse, plasma, iv, 5 mg/kg, 3 h after iv 5 mg/kg artemiside 5, read-out: Mean iv circulating concentration)?
Answer: The concentration at 3 h was 66 nM.

Question: And the concentration at 3 h ([2]; male, C57/BL6, mouse, plasma, iv, 5 mg/kg, 3 h after iv 5 mg/kg artemisox 6, read-out: Mean iv circulating concentration)?
Answer: The concentration at 3 h was 7 nM.

Question: What about the concentration at 5 h ([2]; male, C57/BL6, mouse, plasma, iv, 5 mg/kg, 5 h after iv 5 mg/kg artemiside 5, read-out: Mean iv circulating concentration) of the same compound?
Answer: The concentration at 5 h was 20 nM.

Question: What about the concentration at 5 h ([2]; male, C57/BL6, mouse, plasma, iv, 5 mg/kg, 5 h after iv 5 mg/kg artemisox 6, read-out: Mean iv circulating concentration) of the same compound?
Answer: Its concentration at 5 h is 7 nM.

Question: What about the concentration at 7 h ([2]; male, C57/BL6, mouse, plasma, iv, 5 mg/kg, 7 h after iv 5 mg/kg artemiside 5, read-out: Mean iv circulating concentration) of the same compound?
Answer: The concentration at 7 h was 11 nM.

Question: And the concentration at 24 h ([2]; male, C57/BL6, mouse, plasma, iv, 5 mg/kg, 24 h after iv 5 mg/kg artemiside 5, read-out: Mean iv circulating concentration)?
Answer: Its concentration at 24 h is 5 nM.

Question: And the half-life ([2]; male, C57/BL6, mouse, plasma, iv, 5 mg/kg, iv 5 mg/kg, parent drug)?
Answer: The half-life was 25.8 ± 7.2 min.

Question: And the concentration at 0.08 h ([2]; male, C57/BL6, mouse, plasma, po, 50 mg/kg, 0.08 h after po 50 mg/kg artemiside 5, read-out: Mean po circulating concentration)?
Answer: The concentration at 0.08 h was 1860 nM.

Question: And the concentration at 0.08 h ([2]; male, C57/BL6, mouse, plasma, po, 50 mg/kg, 0.08 h after po 50 mg/kg artemisox 6, read-out: Mean po circulating concentration)?
Answer: Its concentration at 0.08 h is 3040 nM.

Question: And the concentration at 0.25 h ([2]; male, C57/BL6, mouse, plasma, po, 50 mg/kg, 0.25 h after po 50 mg/kg artemiside 5, read-out: Mean po circulating concentration)?
Answer: Its concentration at 0.25 h is 2150 nM.

Question: What about the concentration at 0.25 h ([2]; male, C57/BL6, mouse, plasma, po, 50 mg/kg, 0.25 h after po 50 mg/kg artemisox 6, read-out: Mean po circulating concentration) of the same compound?
Answer: The concentration at 0.25 h was 4210 nM.

Question: And the concentration at 0.5 h ([2]; male, C57/BL6, mouse, plasma, po, 50 mg/kg, 0.5 h after po 50 mg/kg artemiside 5, read-out: Mean po circulating concentration)?
Answer: The concentration at 0.5 h was 2510 nM.

Question: What about the concentration at 0.5 h ([2]; male, C57/BL6, mouse, plasma, po, 50 mg/kg, 0.5 h after po 50 mg/kg artemisox 6, read-out: Mean po circulating concentration) of the same compound?
Answer: The concentration at 0.5 h was 2150 nM.

Question: And the concentration at 1 h ([2]; male, C57/BL6, mouse, plasma, po, 50 mg/kg, 1 h after po 50 mg/kg artemiside 5, read-out: Mean po circulating concentration)?
Answer: The concentration at 1 h was 2030 nM.

Question: And the concentration at 1 h ([2]; male, C57/BL6, mouse, plasma, po, 50 mg/kg, 1 h after po 50 mg/kg artemisox 6, read-out: Mean po circulating concentration)?
Answer: Its concentration at 1 h is 2010 nM.

Question: And the concentration at 3 h ([2]; male, C57/BL6, mouse, plasma, po, 50 mg/kg, 3 h after po 50 mg/kg artemiside 5, read-out: Mean po circulating concentration)?
Answer: The concentration at 3 h was 286 nM.

Question: And the concentration at 3 h ([2]; male, C57/BL6, mouse, plasma, po, 50 mg/kg, 3 h after po 50 mg/kg artemisox 6, read-out: Mean po circulating concentration)?
Answer: Its concentration at 3 h is 13 nM.

Question: What about the concentration at 5 h ([2]; male, C57/BL6, mouse, plasma, po, 50 mg/kg, 5 h after po 50 mg/kg artemiside 5, read-out: Mean po circulating concentration) of the same compound?
Answer: The concentration at 5 h was 7 nM.

Question: And the concentration at 5 h ([2]; male, C57/BL6, mouse, plasma, po, 50 mg/kg, 5 h after po 50 mg/kg artemisox 6, read-out: Mean po circulating concentration)?
Answer: Its concentration at 5 h is 5 nM.

Question: And the concentration at 7 h ([2]; male, C57/BL6, mouse, plasma, po, 50 mg/kg, 7 h after po 50 mg/kg artemiside 5, read-out: Mean po circulating concentration)?
Answer: The concentration at 7 h was 5 nM.

Question: And the concentration at 7 h ([2]; male, C57/BL6, mouse, plasma, po, 50 mg/kg, 7 h after po 50 mg/kg artemisox 6, read-out: Mean po circulating concentration)?
Answer: Its concentration at 7 h is 4 nM.

Question: And the half-life ([2]; male, C57/BL6, mouse, plasma, po, 50 mg/kg, po 50 mg/kg, parent drug)?
Answer: The half-life was 32.4 ± 6 min.

Question: What about the clearance ([2]; male, C57/BL6, mouse, plasma, iv 5 mg/kg) of the same compound?
Answer: Its clearance is 115 mL/min/kg.

Question: What about the AUC(0-inf) [2, 3] of the same compound?
Answer: The AUC(0-inf) was 2 ± 0.7 µM·h.

Question: What about the MRT last ([2]; male, C57/BL6, mouse, plasma, iv 5 mg/kg, parent drug, 0-last up to 7 h) of the same compound?
Answer: Its MRT last is 34.2 ± 2.4 min.

Question: And the AUC(0-t) [2, 3]?
Answer: Its AUC(0-t) is 2 ± 0.7 µM·h.

Question: What about the Vd ([2]; male, C57/BL6, mouse, plasma, iv 5 mg/kg, read-out: Vss) of the same compound?
Answer: The Vd was 4 ± 1.2 L/kg.

Question: And the bioavailability ([2]; male, C57/BL6, mouse, plasma, po 50 mg/kg vs iv 5 mg/kg, read-out: F (bioavailability))?
Answer: Its bioavailability is 16 ± 2%.

Question: What about the Cmax [2, 4] of the same compound?
Answer: The Cmax was 4500 ± 2300 nM.

Question: What about the MRT last [2, 4] of the same compound?
Answer: The MRT last was 41.4 ± 5.4 min.

Question: And the AUC(0-t) [2, 4]?
Answer: The AUC(0-t) was 3.3 ± 1.4 µM·h.

Question: What about the “MAT (mean absorption time = MRTpo–MRTiv)” value ([2]; po 50 mg/kg) of the same compound?
Answer: Its value is 7.8 ± 4.2 min.

Question: What about the “quantifiable/detectable in plasma up to” value ([2]; po group, parent drug) of the same compound?
Answer: The value was “up to 7 h”.
